Results taken from US6914045B2, “Glycopeptide antibiotics” (Wyeth Holdings Corporation, priority 2001, dated 2005).
Values after ≈ are worked out from the molar mass of the structure shown.

Assays:
Enterococcus sp. = assay: in vitro antibacterial evaluation, MIC by broth dilution; format: cell-based; settings: broth dilution, 18 hours at 35° C.
Outline: (§1)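 Following National Committee for Clinical Laboratory Standards recommendations (M7-A2), susceptibility was measured by dilution in Muller-Hinton II […]. Bacteria were seeded at 5×10^5 CFU/mL against compound concentrations from 64 down to 0.06 μg/mL.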

Escherichia coli = assay: as above; format: cell-based; settings: 18 hours at 35° C.
Outline: as §1

Staphylococcus sp. = assay: as above; format: cell-based; settings: broth dilution, 18 hours at 35° C.
Outline: as §1

Streptococcus sp. = assay: as above; format: cell-based; settings: broth dilution, 18 hours at 35° C.
Outline: as §1

[1] = test system: Enterococcus faecalis (GC 6189); assay: acute lethal infection in mice; format: in vivo; settings: female CD-1 mice, intraperitoneal challenge, intravenous 30 min. after infection, 7 day survival
Outline: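 Mice (female CD-1, 20+/−2 gm) receive bacteria ip in broth or hog gastric mucin, then test agent iv after 30 min. Median effective dose is calculated from 7 day survival pooled across 3 tests.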

SMILES: CCC(CC)C1OCC2OC(OC3C(CO)OC(Oc4ccc(CC5NC(=O)C(C(C)c6ccccc6)NC(=O)CNC(=O)C(CO)NC(=O)C(C(O)C6CNC(=N)N6C6OC(CO)C(O)C(O)C6O)NC(=O)C(C(O)C6CNC(=N)N6)NC5=O)cc4)C(O)C3O)C(O)C(O)C2O1 (stereo not drawn) [Example 116, Cyclo[glycyl-β-methylphenylalanyl-O-[4-O-[4,6-O-(2-ethylbutylidene)hexopyranosyl]-hexopyranosyl]tyrosyl-3-(2-iminoimidazolidin-4-yl)seryl-3-(3-hexopyranosvl-2-iminoimidazolidin-4-yl)serylseryl]]
- MIC Enterococcus avium (GC 4558) (Enterococcus sp.; Enterococcus avium (GC 4558)): 2 µg/mL (≈ 1.45 µM)
- MIC Enterococcus faecalis (ATCC 29212) (Enterococcus sp.; Enterococcus faecalis (ATCC 29212)): 2 µg/mL (≈ 1.45 µM)
- MIC Enterococcus faecalis (GC 2242) (Enterococcus sp.; Enterococcus faecalis (GC 2242)): 2 µg/mL (≈ 1.45 µM)
- MIC Enterococcus faecalis (GC 2691) (Enterococcus sp.; Enterococcus faecalis (GC 2691)): 2 µg/mL (≈ 1.45 µM)
- MIC Enterococcus faecalis (GC 3059) (Enterococcus sp.; Enterococcus faecalis (GC 3059)): 2 µg/mL (≈ 1.45 µM)
- MIC Enterococcus faecalis (GC 4552) (Enterococcus sp.; Enterococcus faecalis (GC 4552)): 2 µg/mL (≈ 1.45 µM)
- MIC Enterococcus faecalis (GC 4553) (Enterococcus sp.; Enterococcus faecalis (GC 4553)): 2 µg/mL (≈ 1.45 µM)
- MIC Enterococcus faecalis (GC 4554) (Enterococcus sp.; Enterococcus faecalis (GC 4554)): 2 µg/mL (≈ 1.45 µM)
- MIC Enterococcus faecalis (GC 6189) (Enterococcus sp.; Enterococcus faecalis (GC 6189)): 2 µg/mL (≈ 1.45 µM)
- MIC Enterococcus faecium (GC 2243) (Enterococcus sp.; Enterococcus faecium (GC 2243)): 2 µg/mL (≈ 1.45 µM)
- MIC Enterococcus faecium (GC 4556) (Enterococcus sp.; Enterococcus faecium (GC 4556)): 2 µg/mL (≈ 1.45 µM)
- MIC Enterococcus faecium (GC 4557) (Enterococcus sp.; Enterococcus faecium (GC 4557)): 2 µg/mL (≈ 1.45 µM)
- MIC Enterococcus faecalis (ATCC 29212) (Enterococcus sp.; strain ATCC 29212): 2 µg/mL (≈ 1.45 µM)
- MIC Enterococcus faecalis (GC 2242) (Enterococcus sp.; strain GC 2242): 2 µg/mL (≈ 1.45 µM)
- MIC Enterococcus faecium (GC 2243) (Enterococcus sp.; strain GC 2243): 2 µg/mL (≈ 1.45 µM)
- MIC Enterococcus faecalis (GC 2691) (Enterococcus sp.; strain GC 2691): 2 µg/mL (≈ 1.45 µM)
- MIC Enterococcus faecalis (GC 3059) (Enterococcus sp.; strain GC 3059): 2 µg/mL (≈ 1.45 µM)
- MIC Enterococcus faecalis (GC 4552) (Enterococcus sp.; strain GC 4552): 2 µg/mL (≈ 1.45 µM)
- MIC Enterococcus faecalis (GC 4553) (Enterococcus sp.; strain GC 4553): 2 µg/mL (≈ 1.45 µM)
- MIC Enterococcus faecalis (GC 4554) (Enterococcus sp.; strain GC 4554): 2 µg/mL (≈ 1.45 µM)
- MIC Enterococcus faecium (GC 4556) (Enterococcus sp.; strain GC 4556): 2 µg/mL (≈ 1.45 µM)
- MIC Enterococcus faecium (GC 4557) (Enterococcus sp.; strain GC 4557): 2 µg/mL (≈ 1.45 µM)
- MIC Enterococcus avium (GC 4558) (Enterococcus sp.; strain GC 4558): 2 µg/mL (≈ 1.45 µM)
- MIC Enterococcus faecalis (GC 6189) (Enterococcus sp.; strain GC 6189): 2 µg/mL (≈ 1.45 µM)
- MIC Escherichia coli (ATCC 25922) (Escherichia coli; strain ATCC 25922): 32 µg/mL (≈ 23.2 µM)
- MIC Escherichia coli (GC 4559) (Escherichia coli; strain GC 4559): 64 µg/mL (≈ 46.5 µM)
- MIC Escherichia coli (GC 4560) (Escherichia coli; strain GC 4560): 1 µg/mL (≈ 0.726 µM)
- MIC Coagulase Negative Staphylococcus (GC 4547) (Staphylococcus sp.): 1 µg/mL (≈ 0.726 µM)
- MIC Coagulase Negative Staphylococcus (GC 4548) (Staphylococcus sp.): 1 µg/mL (≈ 0.726 µM)
- MIC Coagulase Negative Staphylococcus (GC 4549) (Staphylococcus sp.): 1 µg/mL (≈ 0.726 µM)
- MIC Coagulase Negative Staphylococcus (GC 4551) (Staphylococcus sp.): 1 µg/mL (≈ 0.726 µM)
- MIC Coagulase Negative Staphylococcus (GC 6257) (Staphylococcus sp.): 0.5 µg/mL (≈ 0.363 µM)
- MIC Staphylococcus aureus (ATCC 29213) (Staphylococcus sp.): 1 µg/mL (≈ 0.726 µM)
- MIC Staphylococcus aureus (GC 1131) (Staphylococcus sp.): 1 µg/mL (≈ 0.726 µM)
- MIC Staphylococcus aureus (GC 3051) (Staphylococcus sp.): 1 µg/mL (≈ 0.726 µM)
- MIC Staphylococcus aureus (GC 3053) (Staphylococcus sp.): 1 µg/mL (≈ 0.726 µM)
- MIC Staphylococcus aureus (GC 4541) (Staphylococcus sp.): 1 µg/mL (≈ 0.726 µM)
- MIC Staphylococcus aureus (GC 4542) (Staphylococcus sp.): 0.5 µg/mL (≈ 0.363 µM)
- MIC Staphylococcus aureus (GC 4544) (Staphylococcus sp.): 1 µg/mL (≈ 0.726 µM)
- MIC Staphylococcus aureus (GC 4545) (Staphylococcus sp.): 1 µg/mL (≈ 0.726 µM)
- MIC Staphylococcus aureus-SMITH (GC 4543) (Staphylococcus sp.): 1 µg/mL (≈ 0.726 µM)
- MIC Staphylococcus haemolyticus (GC 4546) (Staphylococcus sp.): 0.5 µg/mL (≈ 0.363 µM)
- MIC Staphylococcus aureus (GC 1131) (Staphylococcus sp.; inoculum 5×10^5 CFU/mL, strain GC 1131): 1 µg/mL (≈ 0.726 µM)
- MIC Staphylococcus aureus (ATCC 29213) (Staphylococcus sp.; strain ATCC 29213): 1 µg/mL (≈ 0.726 µM)
- MIC Staphylococcus aureus (GC 3051) (Staphylococcus sp.; strain GC 3051): 1 µg/mL (≈ 0.726 µM)
- MIC Staphylococcus aureus (GC 3053) (Staphylococcus sp.; strain GC 3053): 1 µg/mL (≈ 0.726 µM)
- MIC Staphylococcus aureus (GC 4541) (Staphylococcus sp.; strain GC 4541): 1 µg/mL (≈ 0.726 µM)
- MIC Staphylococcus aureus (GC 4542) (Staphylococcus sp.; strain GC 4542): 0.5 µg/mL (≈ 0.363 µM)
- MIC Staphylococcus aureus (GC 4544) (Staphylococcus sp.; strain GC 4544): 1 µg/mL (≈ 0.726 µM)
- MIC Staphylococcus aureus (GC 4545) (Staphylococcus sp.; strain GC 4545): 1 µg/mL (≈ 0.726 µM)
- MIC Staphylococcus haemolyticus (GC 4546) (Staphylococcus sp.; strain GC 4546): 0.5 µg/mL (≈ 0.363 µM)
- MIC Coagulase Negative Staphylococcus (GC 4547) (Staphylococcus sp.; strain GC 4547): 1 µg/mL (≈ 0.726 µM)
- MIC Coagulase Negative Staphylococcus (GC 4548) (Staphylococcus sp.; strain GC 4548): 1 µg/mL (≈ 0.726 µM)
- MIC Coagulase Negative Staphylococcus (GC 4549) (Staphylococcus sp.; strain GC 4549): 1 µg/mL (≈ 0.726 µM)
- MIC Coagulase Negative Staphylococcus (GC 4551) (Staphylococcus sp.; strain GC 4551): 1 µg/mL (≈ 0.726 µM)
- MIC Coagulase Negative Staphylococcus (GC 6257) (Staphylococcus sp.; strain GC 6257): 0.5 µg/mL (≈ 0.363 µM)
- MIC Staphylococcus aureus-SMITH (GC 4543) (Staphylococcus sp.; strain SMITH GC 4543): 1 µg/mL (≈ 0.726 µM)
- MIC Streptococcus agalactiae (GC 4564) (Streptococcus sp.; Streptococcus agalactiae (GC 4564)): 0.25 µg/mL (≈ 0.181 µM)
- MIC Streptococcus pneumoniae (ATCC 6301) (Streptococcus sp.; Streptococcus pneumoniae (ATCC 6301)): <0.06 µg/mL
- MIC Streptococcus pneumoniae (GC 1894) (Streptococcus sp.; Streptococcus pneumoniae (GC 1894)): <0.06 µg/mL
- MIC Streptococcus pneumoniae (GC 4565) (Streptococcus sp.; Streptococcus pneumoniae (GC 4565)): <0.06 µg/mL
- MIC Streptococcus pyogenes (GC 4563) (Streptococcus sp.; Streptococcus pyogenes (GC 4563)): 0.25 µg/mL (≈ 0.181 µM)
- MIC Streptococcus pneumoniae (ATCC 6301) (Streptococcus sp.; strain ATCC 6301): <0.06 µg/mL
- MIC Streptococcus pneumoniae (GC 1894) (Streptococcus sp.; strain GC 1894): <0.06 µg/mL
- MIC Streptococcus pyogenes (GC 4563) (Streptococcus sp.; strain GC 4563): 0.25 µg/mL (≈ 0.181 µM)
- MIC Streptococcus agalactiae (GC 4564) (Streptococcus sp.; strain GC 4564): 0.25 µg/mL (≈ 0.181 µM)
- MIC Streptococcus pneumoniae (GC 4565) (Streptococcus sp.; strain GC 4565): <0.06 µg/mL
- median effective dose (ED50), Enterococcus faecalis (GC 6189) [1]: 0.46 mg/kg
